Values of other authors as cited in patent US20220000967A1, “SYNTHETIC PEPTIDES INDUCING IMMUNOGENIC CELL DEATH” (SORBONNE UNIVERSITE, priority 2018, published 2022).

Tested on: murine B78 melanoma cells
Settings: melphalan killed B78 cells injected, re-challenged 10 days later with B78 viable cells; cited from earlier work

Compound: N[C@@H](Cc1ccc(N(CCCl)CCCl)cc1)C(=O)O [melphalan]
- mice without tumor: 40%
